The values that follow come from patent US20230203095A1, “BIOLOGICAL PEPTIDE FOR TREATING LUNG DISEASES AND APPLICATION THEREOF” (SHANGHAI INSTITUTE OF PHARMACEUTICAL INDUSTRY CO., LTD., priority 2019, published 2023).

Square brackets hold non-standard residues; d marks the D form. Peptide text beside a SMILES is read from it.

In experiment [1] the test system is ConA-stimulated mouse splenocytes. Description: Secretion of IL-4 from mouse splenocytes stimulated by ConA (ELISA). It is filed as cell-based, BALB/C mice. As to conditions: for IL-4 levels of polypeptides: ConA 5 µg/mL, 24 h. The procedure:
(§1) Three BALB/C mice were sacrificed by cervical dislocation after anesthesia. Then mice were immersed in 75% ethanol for 5 minutes. After dissection and spleen extraction, spleen lymphocytes were prepared. […] Different concentrations of test substances were added to each well, and duplicate wells were set for each concentration, and the final concentration of ConA was 5 µg/mL. The plate was incubated in a 37° C. 5% CO2 incubator for 24 h, the drug-containing cell suspension was aspirated from each well, then centrifuged at 200 g for 15 min at 4° C. The supernatant was taken, and mouse IL-4 Elisa kit was used to detect IL- 4 content.
as §1, with “each concentration was” for “duplicate wells were”, “up as triple wells,” for “for each concentration,”, “kit (mouse IL-4 Elisa kit)” for “kit”
Background: In an ELISA, binding on a coated surface is turned into a signal by an enzyme label.

Experiment [2] has as its system OVA-induced asthma model mice. The experiment can be described thus: Lung pathology (H&E) of OVA-induced asthma model mice. The class given is in vivo, BALB/c mice. To be noted: after 28 days. On the procedure:
The first batch: mice were divided into groups, 10 mice in each group, namely: blank control group (normal saline), model group (OVA, 20 ug/mouse), SP peptide group (administered dose of 175 µg/kg body weight/day, 350 µg/kg body weight/day, respectively), SIPI-D00 peptide group (administered dose of 175 µg/kg body weight/day, 350 µg/kg body weight/day), and dexamethasone group (administered dose of 2 mg/kg body weight/day).
Mice in the model group, SP peptide group, SIPI-D00 peptide group and dexamethasone group were sensitized by intraperitoneal injection of OVA (20 µg OVA/mice) on day 0, 7, and 14, and challenged by aerosol administration of OVA (once a day for 5 consecutive days) on day 21-25 to construct asthmatic model animals. Mice in the model group were given normal saline on days 21-28; mice in different doses of SP peptide group and SIPI-D00 peptide group were injected subcutaneously with different doses of SP and SIPI-D00 on days 19-28; mice in dexamethasone group were injected intraperitoneally with 2 mg/kg/day dexamethasone on days 21-28. At the same time, 10 mice in the blank control group were fed normally from day 0 to day 28 without any treatment, and were given normal saline as a blank control.
After 28 days, the mouse lung tissue was taken out, fixed in 4% formaldehyde, embedded in paraffin, sectioned, and stained with H&E for pathological observation.
The first batch: mice were divided into groups, 10 mice in each group, namely: blank control group (normal saline), model group (OVA, 20 ug/mice), and SP peptide group (administered dose of 175 µg/kg body weight/day, 350 µg/kg body weight/day, respectively), SIPI-G5 peptide group (administered dose of 175 µg/kg body weight/day, 350 µg/kg body weight/day), dexamethasone group (administered dose of 2 mg/kg body weight/day).
At the same time, 10 mice in the blank control group were fed normally from day 0 to day 28 without any treatment, and were given normal saline as a blank control.

Take `C[C@H](O)[C@@H](NC(=O)[C@@H](Cc1ccc(O)cc1)NC(=O)[C@H](NC(=O)[C@@H](CO)NC(=O)CN)[C@H](C)O)C(=O)N[C@H](CCC(N)=O)C(=O)NCC(=O)O` [SIPI-D00, GSTYTQG] (H-G[dS][dT][dY][dT][dQ]G-OH): the “secretion of IL-4 by ConA-stimulated mouse spleen lymphocytes (in words)” value in experiment [1] is on record as “significantly inhibit”. Moreover, the “Inhibitory rate of polypeptide on IL-4 secretion” value came to 34.96% in experiment [1] (peptide concentration 1 µg/mL), 59.68% in experiment [1] (peptide concentration 3 µg/mL), 71.00% in experiment [1] (peptide concentration 10 µg/mL) and 72.82% in experiment [1] (peptide concentration 30 µg/mL). The “IL-4 levels of polypeptides” value in experiment [1] (peptide concentration 1 µg/mL) was determined as 14.05 ± 2.19 pg/mL; in experiment [1] (peptide concentration 3 µg/mL), 8.71 ± 0.95 pg/mL; in experiment [1] (peptide concentration 10 µg/mL) it was 6.26 ± 0.36 pg/mL; in experiment [1] (peptide concentration 30 µg/mL), 5.87 ± 0.49 pg/mL. Besides, the “lung pathology, H&E” value in experiment [2] (high-dose group (350 µg/kg body weight/day)) is “less inflammatory cell infiltration and clear alveolar cavity”; in experiment [2] (low-dose group (175 µg/kg body weight/day)) it was “more inflammatory cells infiltrating in the lungs”. In experiment [2] (overall), the “infiltration of inflammatory cells in the lungs, H&E” value is given as “significantly reduce the infiltration of inflammatory cells”.
